In patent publication US4174451A, “2-Furyl-(3,4-dimethyl-2-pyridyl)-carbinol” (Laboratorios Made, S.A., priority 1977, dated 1979):

Experiments:
Swiss I.C.R. albino mice [1] = assay: Thermal analgesia, 55° C. Hot Plate technique; assay type: in vivo; settings: for Jumping time in sec. x ± S.E.M.: 30 minutes after administration, batches of 10 mice, mean ± S.E.M., control 63.7 ± 4.54; for Signif. of differences vs Control (jumping time): p value
Procedure: The thermal analgesic effect was studied in Swiss I.C.R. albino mice. The 55° C. Hot Plate technique was used. Batches of 10 mice were used.
The products under study were administered intraperitoneally, and after 30 minutes the mice were placed on the hot plate, count being made of the time, in seconds, it took them to jump. Batches of control animals were injected only with distilled water.

Swiss I.C.R. albino mice [2] = assay: Chemical analgesia, acetic acid writhing technique; assay type: in vivo; settings: for No. of writhes x ± S.E.M.: 30 minutes before 0.25 ml of 1% acetic acid i.p., counted twenty minutes later, batches of 10 mice, control 78.4 ± 6.7
Procedure: The analgesic effect was studied in Swiss I.C.R. albino mice, by the acetic acid writhing technique. Batches of 10 mice were made.
The products under study were administered intraperitoneally, and 30 minutes later 0.25 ml of 1% acetic acid was injected intraperitoneally. A batch of control animals received only the acetic acid. Twenty minutes following administration of the acetic acid, the number of writhes in each mouse was counted.

[3] = Acute toxicity in mice (LD50, Litchfield-Wilcoxon test); design: species or system Swiss I.C.R. albino mice; settings: mouse, in vivo, ip; intraperitoneal, deaths counted 48 hours after treatment, both sexes, fasted 24 hours
Procedure: An acute toxicity study was made on Swiss I.C.R. albino mice of both sexes of 30± 2 g in weight, kept without food for 24 hours prior to the experiment. Ambient temperature and relative humidity were kept constant. The products were administered intraperitoneally, the number of deaths being counted 48 hours after treatment. The lethal dose (LD50) was calculated by the Litchfield-Wilcoxon test.

[4] = in words, compared with dextropropoxyphene
[5] = p value, 30 mg/kg intraperitoneal

Row | SMILES | Jumping time in sec. x ± S.E.M. (Swiss I.C.R. albino mice [1]; 30 mg/kg intraperitoneal) | Signif. of differences vs Dextroprop. (jumping time) (Swiss I.C.R. albino mice [1]; 30 mg/kg intraperitoneal, vs dextropropoxyphene 30 mg/kg, N.S.) | thermal analgesic action (Swiss I.C.R. albino mice [1]; [4]) | Signif. of differences vs Control (jumping time) (Swiss I.C.R. albino mice [1]; 30 mg/kg intraperitoneal) | No. of writhes x ± S.E.M. (Swiss I.C.R. albino mice [2]; 30 mg/kg intraperitoneal) | chemical analgesic action (Swiss I.C.R. albino mice [2]; [4]) | Signif. of differences vs Control (writhes) (Swiss I.C.R. albino mice [2]; [5]) | Signif. of differences vs Dextroprop. (writhes) (Swiss I.C.R. albino mice [2]; p value, 30 mg/kg intraperitoneal, vs dextropropoxyphene 30 mg/kg) | LD50 at 48 h [3]
1 | Cc1ccnc(C(O)c2ccco2)c1C (stereo not shown) [Product I, 2-furyl-(3,4-dimethyl-2-pyridyl)-carbinol] | 110.1 ± 13.28 s | N.S. | same thermal analgesic action as the dextropropoxyphene | < 0.005 | 53 ± 6.07 | chemical analgesic action, but of lesser intensity than that of dextropropoxyphene | < 0.02 | < 0.00005 | 309 mg/kg
2 | CCC(=O)O[C@](Cc1ccccc1)(c1ccccc1)[C@H](C)CN(C)C [Dextropropoxyphene, dextropropoxyphene, reference compound] | 116.8 ± 12.43 s |  |  | < 0.01 | 8.4 ± 4.04 |  | < 0.00005 |  | 
